≈ marks a conversion by molar mass, not a printed value.
Columns and labels:
Assay in all cases: ≥ marks a high value that may be exact or a test limit, other limits are often not marked, values filed in µg/mL are converted to µM
[1] = system: Escherichia coli CCT 1371
[2] = system: Pseudomonas aeruginosa ATCC 27853
[3] = system: Staphylococcus aureus ATCC 6535
[4] = system: Staphylococcus saprophyticus
Bacillus subtilis DELTA = system: Bacillus subtilis DELTA
Candida parapsilosis = system: Candida parapsilosis
[5] = system: Escherichia coli DH5alpha
[6] = system: Pseudomonas aeruginosa PAO1
[7] = system: Zymomonas mobilis ATCC 10988
[8] = system: Candida albicans ATCC 10231
[9] = system: Candida glabrata ATCC 2001
Candida krusei ATCC 6258 = system: Candida krusei ATCC 6258
[10] = system: Candida parapsilosis ATCC 90018
[11] = system: Candida tropicalis ATCC 750
[12] = system: Escherichia coli ATCC 25922
[13] = system: Staphylococcus aureus ATCC 29213
Aureobasidium pullulans = system: Aureobasidium pullulans
Bacillus megaterium = system: Bacillus megaterium
[14] = system: Bacillus subtilis ATCC 23857
[15] = system: Corynebacterium glutamicum ATCC 13032
Micrococcus luteus = system: Micrococcus luteus
[16] = system: Staphylococcus aureus ATCC 9144
[17] = system: Bacillus subtilis MTCC 2763
[18] = system: Escherichia coli MTCC 723
[19] = system: Pseudomonas aeruginosa MTCC 2295
[20] = system: Staphylococcus aureus ATCC BAA-1720
[21] = system: Staphylococcus aureus MTCC 3160
[22] = system: Staphylococcus epidermidis ATCC 51625

An MIC [1] of 13.8 µM (≈ 15 µg/mL), an MIC [2] of 27.7 µM (≈ 30 µg/mL) and an MIC [3] of 27.7 µM (≈ 30 µg/mL) were found for CC[C@H](C)[C@H](NC(=O)[C@H](CO)NC(=O)[C@@H](NC(=O)[C@H](CCCCN)NC(=O)[C@H](Cc1ccccc1)NC(=O)[C@@H]1CCCN1C(=O)[C@@H](N)CCC(=O)O)[C@@H](C)CC)C(=O)N[C@@H](Cc1cnc[nH]1)C(=O)N[C@@H](CC(C)C)C(N)=O [EPFKISIHL] in this work. It also gave an MIC [4] of 27.7 µM (≈ 30 µg/mL).

With CC[C@H](C)[C@H](NC(=O)[C@H](CC(C)C)NC(=O)[C@H](CCC(N)=O)NC(=O)[C@@H](NC(=O)[C@@H](NC(=O)[C@H](CCCN=C(N)N)NC(=O)[C@H](CCCCN)NC(=O)[C@H](Cc1ccccc1)NC(C)=O)[C@@H](C)CC)C(C)C)C(=O)N[C@@H](CCCCN)C(=O)N[C@@H](CC(=O)O)C(=O)N[C@@H](Cc1ccccc1)C(=O)N[C@@H](CC(C)C)C(=O)N[C@@H](CCCN=C(N)N)C(N)=O [FKRIVQLIKDFLR] the MIC (Bacillus subtilis DELTA) was 11.9 µM (≈ 20.5 µg/mL), the MIC (Candida parapsilosis) was ≥ 59.7 µM and the MIC [5] was ≥ 59.7 µM. For the same compound, the MIC [6] was 59.7 µM (≈ 102 µg/mL) and the MIC [7] was ≥ 59.7 µM.

For CC[C@H](C)[C@H](NC(=O)CN)C(=O)N[C@@H](CC(C)C)C(=O)N[C@@H](CC(=O)O)C(=O)N[C@H](C(=O)N[C@@H](CCCCN)C(=O)N[C@@H](CC(N)=O)C(=O)N[C@@H](CCCCN)C(=O)N[C@H](C(=O)N[C@@H](CO)C(=O)N[C@@H](CC(N)=O)C(=O)N[C@@H](CC(C)C)C(=O)N[C@@H](Cc1ccccc1)C(=O)N[C@@H](CCCCN)C(=O)N[C@@H](CCCCN)C(=O)N[C@H](C(=O)N[C@@H](CCCCN)C(=O)NCC(=O)N[C@@H](CCC(=O)O)C(=O)N[C@@H](CCCCN)C(N)=O)[C@@H](C)CC)C(C)C)[C@@H](C)CC [GILDIKNKVSNLFKKIKGEK], the MIC [8] was 250 µM (≈ 568 µg/mL), the MIC [9] was ≥ 500 µM and the MIC (Candida krusei ATCC 6258) was ≥ 125 µM. The MIC [10] was ≥ 500 µM, the MIC [11] was ≥ 500 µM and the MIC [12] was > 130 µM. The MIC [2] was > 130 µM and the MIC [13] was > 130 µM.

In the case of C[C@H](NC(=O)[C@H](CCCCN)NC(=O)[C@H](Cc1c[nH]c2ccccc12)NC(=O)[C@H](Cc1c[nH]c2ccccc12)NC(=O)CNC(=O)[C@@H]1CCCN1C(=O)[C@H](CCCCN)NC(=O)[C@H](CCCCN)NC(=O)CN)C(=O)N[C@@H](CCCCN)C(N)=O [GKKPGWWKAK], the MIC (Aureobasidium pullulans) is reported as ≥ 52.7 µM, the MIC (Bacillus megaterium) is reported as 3.29 µM (≈ 3.9 µg/mL) and the MIC [14] is reported as ≥ 105 µM. The MIC [8] was 52.7 µM (≈ 62.4 µg/mL), the MIC [15] was 3.29 µM (≈ 3.9 µg/mL) and the MIC [12] was > 211 µM. For the same compound, the MIC (Micrococcus luteus) was ≥ 105 µM, the MIC [2] was > 211 µM and the MIC [16] was ≥ 211 µM.

NC(=O)[C@H](CCCN=C(N)N)NC(=O)[C@H](Cc1c[nH]c2ccccc12)NC(=O)[C@H](Cc1c[nH]c2ccccc12)NC(=O)[C@H](CCCN=C(N)N)NC(=O)[C@@H](N)CCCN=C(N)N [RRWWR] was tested, and the MIC [17] was ≥ 81.5 µM, the MIC [18] was ≥ 87.3 µM and the MIC [19] was ≥ 116 µM. It also gave an MIC [20] of 29.1 µM (≈ 25 µg/mL), an MIC [21] of 29.1 µM (≈ 25 µg/mL) and an MIC [22] of 23.3 µM (≈ 20 µg/mL).

Source: DBAASP
